In patent publication US5807837A, “Composition and method for the treatment or prophylaxis of viral infections using modified oligodeoxyribonucleotides” (Sankyo Company, Limited, priority 1993, dated 1998):

System: non-HIV-1 infected MT-4 cells
Test: Cytotoxicity: inhibition of multiplication of non-HIV-1 infected MT-4 cells (MTT method)
Type: cell-based
Conditions: 6 days culture, 50% inhibition of multiplication
Experimental: HIV-1 infected MT-4 cells and non-HIV-1 infected MT-4 cells were suspended in serum culture media so that a concentration of […] cells/ml of each was attained. One hundred μl of a solution of stepwise diluted sample compound (dissolved in serum culture media), prepared in advance, was placed in each well of […] microtiter plates. Then, 100 μl of each of the above-mentioned cell suspensions was added to each well of microtiter plates, and their cells were cultured for 6 days in the presence of 5% carbon dioxide gas.
As a control, HIV-1 infected MT-4 cells and non-HIV-1 infected MT-4 cells in which no sample compound was added were cultured in the same manner.
After the cultivation, live cell number was measured based on the MTT(3-(4,5-dimethylthiazole-2-yl)-2,5-diphenyltetrazolium bromide) method (L. M. Green et al., J. Immunol, Methods, 70, 257-268(1984)). Then the cytopathic activity of HIV-1 was measured. With the cytopathic activity of HIV-1 infected MT-4 cells to which no sample compound was added as 100%, and the cytopathic activity of […] MT-4 cells to which no sample compound was added as 0%, the concentration of the specimen which inhibited the cytopathic activity of HIV-1 infected MT-4 cells by 50(IC50) was calculated. The cytotoxicity of the sample compound was determined as that concentration which inhibited the multiplication of non-HIV-1 infected MT-4 cells by 50% (CC50).

Q: Which CC50 does the source give for DMT--O--AATGGGAGG--OH [Example 81] here?
A: > 100.0 µg/mL

Q: How did the CC50 turn out when DMT--O--CCG--OH [Example 74] was run?
A: > 100.0 µg/mL

Q: For DMT--O--CGCGG--OH [Example 48], which CC50 is on record?
A: > 100.0 µg/mL

Q: Which CC50 does the source give for DMT--O--CGGGAGG--OH [Example 29] here?
A: > 100.0 µg/mL

Q: How did the CC50 turn out when DMT--O--CGGGG--OH [Example 45] was run?
A: > 100.0 µg/mL

Q: For DMT--O--CGGGT--OH [Example 43], which CC50 is on record?
A: 100.0 µg/mL

Q: How did the CC50 turn out when DMT--O--CTGGGAGG--OH [Example 37] was run?
A: > 100.0 µg/mL

Q: Which CC50 does the source give for DMT--O--GGGCGGGGC--OH [Example 70] here?
A: 60.0 µg/mL

Q: How did the CC50 turn out when DMT--O--GGGGAGG--OH [Example 33] was run?
A: > 100.0 µg/mL

Q: DMT--O--GTGGGAGG--OH [Example 77] was tested. Which CC50 did it give?
A: > 100.0 µg/mL

Q: Which CC50 does the source give for DMT--O--TAGGAGG--OH [Example 71] here?
A: 37.0 µg/mL

Q: Which CC50 does the source give for DMT--O--TCGGAGG--OH [Example 75] here?
A: 40.0 µg/mL

Q: With DMT--O--TGCGAGG--OH [Example 32] as the substance, how does the CC50 read?
A: > 100.0 µg/mL

Q: How did the CC50 turn out when DMT--O--TGG--OH [Example 78] was run?
A: > 50.0 µg/mL

Q: Which CC50 does the source give for DMT--O--TGGG--OH [Example 26] here?
A: 80.0 µg/mL

Q: With DMT--O--TGGGA--OH [Example 27] as the substance, how does the CC50 read?
A: 95.0 µg/mL

Q: With DMT--O--TGGGAGA--OH [Example 80] as the substance, how does the CC50 read?
A: > 100.0 µg/mL

Q: With DMT--O--TGGGAGG--OH [Example 30] as the substance, how does the CC50 read?
A: > 100.0 µg/mL

Q: DMT--O--TGGGAGGT--OH [Example 72] was tested. Which CC50 did it give?
A: > 100.0 µg/mL

Q: How did the CC50 turn out when DMT--O--TGGGAmGG [Example 79] was run?
A: > 100.0 µg/mL

Q: DMT--O--TGGGC--OH [Example 58] was tested. Which CC50 did it give?
A: 50.0 µg/mL

Q: Which CC50 does the source give for DMT--O--TGGGCGCAG--OH [Example 73] here?
A: > 100.0 µg/mL

Q: Which CC50 does the source give for DMT--O--TGGGG--OH [Example 28] here?
A: > 100.0 µg/mL

Q: DMT--O--TGGGT--OH [Example 57] was tested. Which CC50 did it give?
A: 100.0 µg/mL

Q: DMT--O--TGmCGAGG--OH [Example 76] was tested. Which CC50 did it give?
A: > 100.0 µg/mL

Q: How did the CC50 turn out when DMT--O--TTGGAGG--OH [Example 31] was run?
A: 90.0 µg/mL

Q: For DMT--O--TTGGGAGG--OH [Example 36], which CC50 is on record?
A: 100.0 µg/mL

Q: DMT--O--mCGGGAGG--OH [Example 34] was tested. Which CC50 did it give?
A: > 100.0 µg/mL

Q: How did the CC50 turn out when DMT--O--mCGmCGAGG--OH [Example 35] was run?
A: > 100.0 µg/mL

Q: How did the CC50 turn out when DMT-O-TGGGAG-OH [Example 25] was run?
A: > 100.0 µg/mL
